PubChem BioAssay (NCI)
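Grown in 96-well plates, cells were treated for 48 hours with each compound at five concentrations. Insufficient inhibition: endpoint recorded as highest concentration tested. GI50 = concentration required for 50% inhibition of growth. The concentration for full growth arrest is given as TGI.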

Tests used:
Assay in all cases: NCI tumour cell line growth inhibition, 48 h
DMS 114 small cell lung = system: DMS 114 small cell lung
NCI-H522 lung = system: NCI-H522 lung
LXFL 529 NSCLC = system: LXFL 529 NSCLC
CAKI-1 renal = system: CAKI-1 renal
SN12C renal = system: SN12C renal
NCI-H460 lung = system: NCI-H460 lung
RXF 393 renal = system: RXF 393 renal
TK-10 renal = system: TK-10 renal
SW-620 colon = system: SW-620 colon
DMS 273 small cell lung = system: DMS 273 small cell lung
SNB-78 CNS = system: SNB-78 CNS
MOLT-4 leukemia = system: MOLT-4 leukemia
EKVX NSCLC = system: EKVX NSCLC
LOX IMVI melanoma = system: LOX IMVI melanoma
SK-OV-3 ovarian = system: SK-OV-3 ovarian
HT29 colon = system: HT29 colon
KM20L2 colon = system: KM20L2 colon
SF-295 CNS = system: SF-295 CNS
SR leukemia = system: SR leukemia
HCT-15 colon = system: HCT-15 colon
K-562 leukemia = system: K-562 leukemia
UACC-62 melanoma = system: UACC-62 melanoma
SF-539 CNS = system: SF-539 CNS
SNB-19 CNS = system: SNB-19 CNS
UO-31 renal = system: UO-31 renal
OVCAR-3 ovarian = system: OVCAR-3 ovarian
COLO 205 colon = system: COLO 205 colon
SK-MEL-28 melanoma = system: SK-MEL-28 melanoma
HOP-92 NSCLC = system: HOP-92 NSCLC
SNB-75 CNS = system: SNB-75 CNS
HOP-62 NSCLC = system: HOP-62 NSCLC
M19-MEL melanoma = system: M19-MEL melanoma
HCT-116 colon = system: HCT-116 colon
NCI-H226 lung = system: NCI-H226 lung
DLD-1 colon = system: DLD-1 colon
HCC-2998 colon = system: HCC-2998 colon
SK-MEL-2 melanoma = system: SK-MEL-2 melanoma
UACC-257 melanoma = system: UACC-257 melanoma
RPMI-8226 leukemia = system: RPMI-8226 leukemia
HL-60(TB) leukemia = system: HL-60(TB) leukemia
XF 498 CNS = system: XF 498 CNS
MALME-3M melanoma = system: MALME-3M melanoma
OVCAR-8 ovarian = system: OVCAR-8 ovarian
U251 CNS = system: U251 CNS
IGROV1 ovarian = system: IGROV1 ovarian
A498 renal = system: A498 renal
M14 melanoma = system: M14 melanoma
ACHN renal = system: ACHN renal
A549 NSCLC = system: A549 NSCLC
CCRF-CEM leukemia = system: CCRF-CEM leukemia
OVCAR-4 ovarian = system: OVCAR-4 ovarian
786-0 renal = system: 786-0 renal
NCI-H23 lung = system: NCI-H23 lung
KM12 colon = system: KM12 colon
SK-MEL-5 melanoma = system: SK-MEL-5 melanoma
SF-268 CNS = system: SF-268 CNS
HOP-18 NSCLC = system: HOP-18 NSCLC

Compound: CCC[CH2][Sn]1([CH2]CCC)[O]C(=O)c2cccnc2[S]1
- GI50 (DMS 114 small cell lung): 1.64 µM
- TGI (DMS 114 small cell lung): 3.83 µM
- GI50 (NCI-H522 lung): 0.348 µM
- TGI (NCI-H522 lung): 1.57 µM
- GI50 (LXFL 529 NSCLC): 1.33 µM
- TGI (LXFL 529 NSCLC): 2.98 µM
- GI50 (CAKI-1 renal): 1.76 µM
- TGI (CAKI-1 renal): 8.05 µM
- GI50 (SN12C renal): 3.8 µM
- TGI (SN12C renal): 13.2 µM
- GI50 (NCI-H460 lung): 11.4 µM
- TGI (NCI-H460 lung): 23.6 µM
- GI50 (RXF 393 renal): 1.66 µM
- TGI (RXF 393 renal): 3.2 µM
- GI50 (TK-10 renal): 3.71 µM
- TGI (TK-10 renal): 12.1 µM
- GI50 (SW-620 colon): 1.88 µM
- TGI (SW-620 colon): 4.31 µM
- GI50 (DMS 273 small cell lung): 3.38 µM
- TGI (DMS 273 small cell lung): 13.7 µM
- GI50 (SNB-78 CNS): 1.88 µM
- TGI (SNB-78 CNS): 5.76 µM
- GI50 (MOLT-4 leukemia): 1.87 µM
- TGI (MOLT-4 leukemia): 7.71 µM
- GI50 (EKVX NSCLC): 2.46 µM
- TGI (EKVX NSCLC): 11.9 µM
- GI50 (LOX IMVI melanoma): 1.76 µM
- TGI (LOX IMVI melanoma): 3.6 µM
- GI50 (SK-OV-3 ovarian): 16.9 µM
- TGI (SK-OV-3 ovarian): 31.4 µM
- GI50 (HT29 colon): 11.1 µM
- TGI (HT29 colon): 24.7 µM
- GI50 (KM20L2 colon): 7.72 µM
- TGI (KM20L2 colon): 21 µM
- GI50 (SF-295 CNS): 3.19 µM
- TGI (SF-295 CNS): 12 µM
- GI50 (SR leukemia): 1.4 µM
- TGI (SR leukemia): 5.65 µM
- GI50 (HCT-15 colon): 2.21 µM
- TGI (HCT-15 colon): 4.98 µM
- GI50 (K-562 leukemia): 1.65 µM
- TGI (K-562 leukemia): 5.48 µM
- GI50 (UACC-62 melanoma): 1.87 µM
- TGI (UACC-62 melanoma): 5.53 µM
- GI50 (SF-539 CNS): 3.17 µM
- TGI (SF-539 CNS): 8.39 µM
- GI50 (SNB-19 CNS): 6.88 µM
- TGI (SNB-19 CNS): 19.5 µM
- GI50 (UO-31 renal): 8.59 µM
- TGI (UO-31 renal): 20.9 µM
- GI50 (OVCAR-3 ovarian): 3.49 µM
- TGI (OVCAR-3 ovarian): 12.5 µM
- GI50 (COLO 205 colon): 3.34 µM
- TGI (COLO 205 colon): 9.33 µM
- GI50 (SK-MEL-28 melanoma): 2.7 µM
- TGI (SK-MEL-28 melanoma): 10.6 µM
- GI50 (HOP-92 NSCLC): 3.37 µM
- TGI (HOP-92 NSCLC): 12.1 µM
- GI50 (SNB-75 CNS): 2.54 µM
- TGI (SNB-75 CNS): 7.82 µM
- GI50 (HOP-62 NSCLC): 28.9 µM
- TGI (HOP-62 NSCLC): 43.7 µM
- GI50 (M19-MEL melanoma): 3.87 µM
- TGI (M19-MEL melanoma): 15.4 µM
- GI50 (HCT-116 colon): 5.56 µM
- TGI (HCT-116 colon): 17.9 µM
- GI50 (NCI-H226 lung): 15.3 µM
- TGI (NCI-H226 lung): 29.1 µM
- GI50 (DLD-1 colon): 3.94 µM
- TGI (DLD-1 colon): 14.5 µM
- GI50 (HCC-2998 colon): 2.39 µM
- TGI (HCC-2998 colon): 6.15 µM
- GI50 (SK-MEL-2 melanoma): 2.11 µM
- TGI (SK-MEL-2 melanoma): 4.63 µM
- GI50 (UACC-257 melanoma): 2.64 µM
- TGI (UACC-257 melanoma): 6.97 µM
- GI50 (RPMI-8226 leukemia): 1.48 µM
- TGI (RPMI-8226 leukemia): 5.29 µM
- GI50 (HL-60(TB) leukemia): 1.42 µM
- TGI (HL-60(TB) leukemia): 3.31 µM
- GI50 (XF 498 CNS): 2 µM
- TGI (XF 498 CNS): 3.5 µM
- GI50 (MALME-3M melanoma): 1.49 µM
- TGI (MALME-3M melanoma): 4.31 µM
- GI50 (OVCAR-8 ovarian): 4.04 µM
- TGI (OVCAR-8 ovarian): 14.5 µM
- GI50 (U251 CNS): 1.21 µM
- TGI (U251 CNS): 5.33 µM
- GI50 (IGROV1 ovarian): 11.2 µM
- TGI (IGROV1 ovarian): 23.5 µM
- GI50 (A498 renal): 2.37 µM
- TGI (A498 renal): 5.3 µM
- GI50 (M14 melanoma): 3.22 µM
- TGI (M14 melanoma): 10.1 µM
- GI50 (ACHN renal): 3.51 µM
- TGI (ACHN renal): 11.7 µM
- GI50 (A549 NSCLC): 16.8 µM
- TGI (A549 NSCLC): 31.6 µM
- GI50 (CCRF-CEM leukemia): 0.058 µM
- TGI (CCRF-CEM leukemia): 1.02 µM
- GI50 (OVCAR-4 ovarian): 10.1 µM
- TGI (OVCAR-4 ovarian): 21.9 µM
- GI50 (786-0 renal): 2.55 µM
- TGI (786-0 renal): 6.8 µM
- GI50 (NCI-H23 lung): 2.13 µM
- TGI (NCI-H23 lung): 5.41 µM
- GI50 (KM12 colon): 6.92 µM
- TGI (KM12 colon): 19.6 µM
- GI50 (SK-MEL-5 melanoma): 4.96 µM
- TGI (SK-MEL-5 melanoma): 17 µM

Compound: CC1(C)OC(COP2OCCO2)[C@H](COP2OCCO2)O1 (stereo partly specified)
- TGI (DMS 114 small cell lung): > 100 µM
- TGI (LXFL 529 NSCLC): > 100 µM
- TGI (SN12C renal): > 100 µM
- TGI (NCI-H460 lung): > 100 µM
- TGI (RXF 393 renal): > 100 µM
- TGI (TK-10 renal): > 100 µM
- TGI (SW-620 colon): > 100 µM
- TGI (DMS 273 small cell lung): > 100 µM
- TGI (SNB-78 CNS): > 100 µM
- TGI (MOLT-4 leukemia): > 100 µM
- TGI (LOX IMVI melanoma): > 100 µM
- TGI (HT29 colon): > 100 µM
- TGI (SF-295 CNS): > 100 µM
- TGI (HCT-15 colon): > 100 µM
- TGI (K-562 leukemia): > 100 µM
- TGI (UACC-62 melanoma): > 100 µM
- TGI (SF-268 CNS): > 100 µM
- TGI (SF-539 CNS): > 100 µM
- TGI (OVCAR-3 ovarian): > 100 µM
- TGI (SK-MEL-28 melanoma): > 100 µM
- TGI (HOP-18 NSCLC): > 100 µM
- TGI (SNB-75 CNS): > 100 µM
- TGI (M19-MEL melanoma): > 100 µM
- TGI (HCT-116 colon): > 100 µM
- TGI (NCI-H226 lung): > 100 µM
- TGI (SK-MEL-2 melanoma): > 100 µM
- TGI (UACC-257 melanoma): > 100 µM
- TGI (HL-60(TB) leukemia): > 100 µM
- TGI (MALME-3M melanoma): > 100 µM
- TGI (OVCAR-8 ovarian): > 100 µM
- TGI (IGROV1 ovarian): > 100 µM
- TGI (A498 renal): > 100 µM
- TGI (M14 melanoma): > 100 µM
- TGI (ACHN renal): > 100 µM
- TGI (A549 NSCLC): > 100 µM
- TGI (CCRF-CEM leukemia): > 100 µM
- TGI (OVCAR-4 ovarian): > 100 µM
- TGI (NCI-H23 lung): > 100 µM
- TGI (KM12 colon): > 100 µM
- TGI (SK-MEL-5 melanoma): > 100 µM

Compound: COc1cc2c(cc1O)CCN[C@@]21CS[C@H]2c3c(OC(C)=O)c(C)c4c(c3C(COC1=O)N1C2C2NC(Cc3cc(C)c(OC)c(O)c32)[C@@H]1C#N)OCO4 (stereo partly specified)
- TGI (DMS 114 small cell lung): < 0.01 µM
- TGI (LXFL 529 NSCLC): 0.111 µM
- TGI (SN12C renal): 0.115 µM
- TGI (RXF 393 renal): < 0.01 µM
- TGI (TK-10 renal): 61 µM
- TGI (SW-620 colon): 1.06 µM
- TGI (MOLT-4 leukemia): < 0.01 µM
- TGI (EKVX NSCLC): 0.125 µM
- TGI (HT29 colon): 0.16 µM
- TGI (KM20L2 colon): < 0.01 µM
- TGI (SR leukemia): > 100 µM
- TGI (UACC-62 melanoma): < 0.01 µM
- TGI (SF-268 CNS): 0.104 µM
- TGI (SF-539 CNS): < 0.01 µM
- TGI (SNB-19 CNS): 1.87 µM
- TGI (SK-MEL-28 melanoma): 0.0268 µM
- TGI (SNB-75 CNS): < 0.01 µM
- TGI (HOP-62 NSCLC): 0.0107 µM
- TGI (M19-MEL melanoma): < 0.01 µM
- TGI (HCT-116 colon): 1.14 µM
- TGI (NCI-H226 lung): < 0.01 µM
- TGI (DLD-1 colon): 0.271 µM
- TGI (HCC-2998 colon): < 0.01 µM
- TGI (SK-MEL-2 melanoma): < 0.01 µM
- TGI (RPMI-8226 leukemia): 0.017 µM
- TGI (HL-60(TB) leukemia): 0.0209 µM
- TGI (XF 498 CNS): < 0.01 µM
- TGI (MALME-3M melanoma): < 0.01 µM
- TGI (U251 CNS): 0.444 µM
- TGI (M14 melanoma): < 0.01 µM
- TGI (ACHN renal): 0.721 µM
- TGI (CCRF-CEM leukemia): 0.0525 µM
- TGI (OVCAR-4 ovarian): < 0.01 µM
- TGI (786-0 renal): 0.162 µM
- TGI (NCI-H23 lung): < 0.01 µM
- TGI (SK-MEL-5 melanoma): < 0.01 µM
